According to publication PMC8096218, “Global RNA profiles show target selectivity and physiological effects of peptide-delivered antisense antibiotics” (Nucleic Acids Research, 2021):

How the values were obtained:
acpP mRNA = experiment: Northern blot of acpP transcript levels after PNA treatment; format: cell-based, Salmonella enterica serovar Typhimurium; settings: 5 μM, 5, 10 or 15 min, 10^6 cfu/ml; two biological replicates
Description: For northern blotting, equal RNA amounts were used for gel electrophoresis (10 μg in Figure 4B; 100–150 ng in Figure 4E) and subsequent transfer to Hybond+ membranes (GE Healthcare Life Sciences). After crosslinking (0,12 J/cm^2), membranes were blocked using ROTI®Hybri-Quick (Roth) and incubated with RNA-specific digoxigenin (DIG; Roche)- or radioactively-labeled (5′ ^32P-labeling ([28])) oligonucleotides. In vitro transcription (MEGAscript T7 polymerase, Ambion), DIG-labeling of probes and northern blot detection was performed according to the manufacturer's instructions. Sequences of all the oligonucleotides (purchased from Eurofins Genomics or Sigma) employed for northern blot probe generation or RT-qPCR are listed in Supplementary Table S2. Signals were visualized on a phosphorimager (Typhoon FLA 7000, GE Healthcare) for radioactive probes, or using an ImageQuant (LAS 4000, GE Healthcare) for DIG-labeled probes.
Bacterial overnight cultures were diluted 1:100 in fresh MHB and grown to OD600 0.5. […]
Figure 4. […] In brief, 10^9 cfu were pelleted for the isolation of RNA, which was subsequently analyzed using (A) a denaturing polyacrylamide gel (1 μg/lane) and (B) northern blotting (10 μg/lane). […] (B) Transcript levels of two sRNAs, SroC and SdhX (SdhX1, SdhX2), and the loading control 5S were detected using sequence specific radioactive-labeled probes. […]

fabF mRNA = experiment: RNA-seq differential expression, second gene of the dicistron; format: cell-based, Salmonella enterica serovar Typhimurium; settings: edgeR, versus water; 15 min; 5 μM KFF-/RXR-constructs, 10 μM Tat-constructs; triplicates
Description: Bacterial overnight cultures were diluted 1:100 in fresh MHB and grown to OD600 0.5. The obtained cultures were diluted to ∼10^6 cfu/ml in non-cation-adjusted MHB. Afterward, the bacterial solution was transferred into low-binding 5 ml tubes (LABsolute) along with the 20× PNA, peptide or PPNA solution. The final concentrations were 5 μM for KFF- and RXR-PNAs, and 10 μM for Tat-PNAs. Equimolar concentrations were used for the respective peptide control conditions. As a negative control, cells were treated with the respective volume of sterile nuclease-free water, which was used as solvent for the test compounds. […]
DNase treatment, cDNA library preparation and sequencing was conducted at Vertis (Munich, Germany). […] The cDNA was purified using the Agencourt AMPure XP kit (Beckman Coulter Genomics) and was analyzed by capillary electrophoresis. […] The cDNA pool was sequenced on an Illumina NextSeq 500 system using 75 bp read length.
Reads from the RNA-Seq experiments were trimmed, filtered and mapped against the S. enterica subsp. enterica serovar Typhimurium SL1344 reference genome and the three plasmids pSLT_SL1344, pCol1B9_SL1344 (other name is p2), and pRSF1010_SL1344 ([19]). […]
All downstream analysis was performed using packages from the R/Bioconductor project. The raw read counts were imported and analyzed with edgeR (v3.30.0). […]

KFFKFFKFFK [KFF-acpP, KFF peptide conjugated to 10-mer antisense PNA against the translational start site of acpP]
acpP mRNA levels (northern blot) (acpP mRNA): rapid decrease of acpP mRNA levels from 5 min post treatment onwards | logFC fabF (fabF mRNA): -1.1555
